From patent publication US12509444B2, “Compounds and methods for CD73 modulation and indications therefor” (Plexxikon Inc., priority 2019, dated 2025)

How the values were obtained:
[1] = molecular target: T1, human CD73 (Homo sapiens, UniProt P21589); experiment: Inhibitor activity against CD73 in cell based assay (CD73 expressing CHO-K1 cells); details: CHO-K1 cells expressing human CD73, 150 μM AMP, 4 hours of incubation; read-out: CHO-K1 CELL VARIANT: CD73 IC50
T1 construct: expressed in transfected cells
T1 sequence (P21589 27-549): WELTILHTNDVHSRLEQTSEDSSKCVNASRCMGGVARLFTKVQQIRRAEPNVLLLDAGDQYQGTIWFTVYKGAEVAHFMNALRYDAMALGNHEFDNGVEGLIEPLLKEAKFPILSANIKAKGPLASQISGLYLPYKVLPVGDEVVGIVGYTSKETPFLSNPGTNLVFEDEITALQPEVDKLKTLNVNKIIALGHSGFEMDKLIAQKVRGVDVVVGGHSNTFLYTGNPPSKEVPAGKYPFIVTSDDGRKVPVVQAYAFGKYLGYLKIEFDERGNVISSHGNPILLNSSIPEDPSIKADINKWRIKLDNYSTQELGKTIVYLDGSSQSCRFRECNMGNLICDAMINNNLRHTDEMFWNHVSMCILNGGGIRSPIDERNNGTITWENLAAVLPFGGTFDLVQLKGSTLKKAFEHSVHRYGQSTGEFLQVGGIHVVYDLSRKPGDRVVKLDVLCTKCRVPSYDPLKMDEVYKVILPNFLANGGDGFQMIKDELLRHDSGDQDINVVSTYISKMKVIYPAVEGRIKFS
Procedure, shortened: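 Residual supernatant AMP was quantified via CellTiter-Glo luminescence (1 μM ATP added, 30 min, room temperature) after a 4 h exposure of human CD73-expressing CHO-K1 cells to 150 μM AMP plus compound, top final 10 μM, 8 points. IC50 came from nonlinear regression of percent inhibition.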

[2] = molecular target: T2, Human CD73 (amino acid residues 27-549) (Homo sapiens, UniProt P21589); experiment: CD73 enzymatic assay (luciferase-based indirect assay, CellTiter-Glo); format: biochemical; details: 0.4 nM CD73, 150 μM AMP, 1 hour at room temperature
T2 construct: Human CD73 (amino acid residues 27-549); His tag (N); made in house; host or cells: E. coli
T2 sequence (P21589 27-549): T1 sequence (P21589 27-549)
Procedure, shortened: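 Residual AMP inhibits luciferase, so luminescence reports CD73 turnover; read with CellTiter-Glo 2.0 plus 1 μM final ATP, 30 min. Reaction used 0.4 nM N-His CD73 (27-549, E. coli), 150 μM AMP, HEPES pH 7.4 with Tween 20, 1 h at room temperature. IC50 fitted by nonlinear regression.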

Row | IC50 [1] [µM] | IC50 [2] [µM] | Structure (SMILES)
1 | 0.001 to 10 | 0.001 to 10 | O=C(N[C@H]1CC[C@H](NC(=O)c2ccc(Cl)cc2)CC1)O[C@@H]1CCN(c2cn[nH]c(=O)c2Cl)C1 [P-0265, (R)-1-(5-chloro-6-oxo-1,6-dihydropyridazin-4-yl)pyrrolidin-3-yl ((1r,4R)-4-(4-chlorobenzamido)cyclohexyl) carbamate]
2 | 0.001 to 10 | 0.001 to 10 | O=C(N[C@H]1CC[C@H](NC(=O)c2ccccc2Cl)CC1)O[C@@H]1CCN(c2cn[nH]c(=O)c2Cl)C1 [P-0266, (R)-1-(5-chloro-6-oxo-1,6-dihydropyridazin-4-yl)pyrrolidin-3-yl ((1r,4R)-4-(2-chlorobenzamido)cyclohexyl) carbamate]
3 | 0.001 to 10 | 0.001 to 10 | O=C(N[C@H]1CC[C@H](NC(=O)c2c(F)cccc2F)CC1)O[C@@H]1CCN(c2cn[nH]c(=O)c2Cl)C1 [P-0267, (R)-1-(5-chloro-6-oxo-1,6-dihydropyridazin-4-yl)pyrrolidin-3-yl ((1r,4R)-4-(2,6-difluorobenzamido)cyclohexyl) carbamate]
4 | 0.001 to 10 | 0.001 to 10 | Cc1cccc(F)c1C(=O)N[C@H]1CC[C@H](NC(=O)O[C@@H]2CCN(c3cn[nH]c(=O)c3Cl)C2)CC1 [P-0268, (R)-1-(5-chloro-6-oxo-1,6-dihydropyridazin-4-yl)pyrrolidin-3-yl ((1r,4R)-4-(2-fluoro-6-methylbenzamido)cyclohexyl) carbamate]
5 | 0.001 to 10 | 0.001 to 10 | CCN(CC)CC(=O)N[C@H]1CC[C@H](NC(=O)O[C@@H]2CCN(c3cn[nH]c(=O)c3Cl)C2)CC1 [P-0269, (R)-1-(5-chloro-6-oxo-1,6-dihydropyridazin-4-yl)pyrrolidin-3-yl ((1r,4R)-4-(2-(diethylamino)acetamido)cyclohexyl)carbamate]
6 | 0.001 to 10 | 0.001 to 10 | O=C(CN1CCOCC1)N[C@H]1CC[C@H](NC(=O)O[C@@H]2CCN(c3cn[nH]c(=O)c3Cl)C2)CC1 [P-0270, (R)-1-(5-chloro-6-oxo-1,6-dihydropyridazin-4-yl)pyrrolidin-3-yl ((1r,4R)-4-(2-morpholinoacetamido)cyclohexyl)carbamate]
7 | 0.001 to 10 | 0.001 to 10 | O=C(NC1CC1)N[C@H]1CC[C@H](NC(=O)O[C@@H]2CCN(c3cn[nH]c(=O)c3Cl)C2)CC1 [P-0271, (R)-1-(5-chloro-6-oxo-1,6-dihydropyridazin-4-yl)pyrrolidin-3-yl ((1r,4R)-4-(3-cyclopropylureido)cyclohexyl) carbamate]
8 | 0.001 to 10 | 0.001 to 10 | O=C(Nc1ccc(Cl)cc1)N[C@H]1CC[C@H](NC(=O)O[C@@H]2CCN(c3cn[nH]c(=O)c3Cl)C2)CC1 [P-0272, (R)-1-(5-chloro-6-oxo-1,6-dihydropyridazin-4-yl)pyrrolidin-3-yl ((1r,4R)-4-(3-(4-chlorophenyl)ureido)cyclohexyl)carbamate]
9 | 0.001 to 10 | 0.001 to 10 | C[C@]1(O)CC[C@@H](NC(=O)O[C@@H]2CCN(c3cn[nH]c(=O)c3Cl)C2)CC1 [P-0273, (R)-1-(5-chloro-6-oxo-1,6-dihydropyridazin-4-yl)pyrrolidin-3-yl ((1s,4S)-4-hydroxy-4-methylcyclohexyl)carbamate]
10 | 0.001 to 10 | 0.001 to 10 | O=C(N[C@H]1CC[C@@H](O)CC1)O[C@@H]1CCN(c2cn[nH]c(=O)c2Cl)C1 [P-0274, (R)-1-(5-chloro-6-oxo-1,6-dihydropyridazin-4-yl)pyrrolidin-3-yl ((1s,4S)-4-hydroxycyclohexyl)carbamate]
11 | 0.001 to 10 | 0.001 to 10 | N#C[C@H]1CC[C@H](NC(=O)O[C@@H]2CCN(c3cn[nH]c(=O)c3Cl)C2)CC1 [P-0275, (R)-1-(5-chloro-6-oxo-1,6-dihydropyridazin-4-yl)pyrrolidin-3-yl ((1r,4R)-4-cyanocyclohexyl)carbamate]
12 | 0.001 to 10 | 0.001 to 10 | O=C(NC1CCC2(CC1)CC2)O[C@@H]1CCN(c2cn[nH]c(=O)c2Cl)C1 [P-0276, (R)-1-(5-chloro-6-oxo-1,6-dihydropyridazin-4-yl)pyrrolidin-3-yl spiro[2.5]octan-6-ylcarbamate]
13 | 0.001 to 10 | 0.001 to 10 | O=C(N[C@H]1CC[C@H](F)CC1)O[C@@H]1CCN(c2cn[nH]c(=O)c2Cl)C1 [P-0277, (R)-1-(5-chloro-6-oxo-1,6-dihydropyridazin-4-yl)pyrrolidin-3-yl ((1r,4R)-4-fluorocyclohexyl)carbamate]
14 | 0.001 to 10 | 0.001 to 10 | CC1(C)CCCC(NC(=O)O[C@@H]2CCN(c3cn[nH]c(=O)c3Cl)C2)C1 (stereo partly drawn) [P-0278, (R)-1-(5-chloro-6-oxo-1,6-dihydropyridazin-4-yl)pyrrolidin-3-yl (3,3-dimethylcyclohexyl)carbamate]
15 | 0.001 to 10 | 0.001 to 10 | C[C@H]1CCCC[C@H]1NC(=O)O[C@@H]1CCN(c2cn[nH]c(=O)c2Cl)C1 [P-0279, (R)-1-(5-chloro-6-oxo-1,6-dihydropyridazin-4-yl)pyrrolidin-3-yl ((1R,2S)-2-methylcyclohexyl)carbamate]
16 | 0.001 to 10 | 0.001 to 10 | O=C1CC(NC(=O)O[C@@H]2CCN(c3cn[nH]c(=O)c3Cl)C2)CCN1 (stereo partly drawn) [P-0280, (R)-1-(5-chloro-6-oxo-1,6-dihydropyridazin-4-yl)pyrrolidin-3-yl (2-oxopiperidin-4-yl)carbamate]
17 | 0.001 to 10 | 0.001 to 10 | CN1CCC(NC(=O)O[C@@H]2CCN(c3cn[nH]c(=O)c3Cl)C2)CC1=O (stereo partly drawn) [P-0281, (R)-1-(5-chloro-6-oxo-1,6-dihydropyridazin-4-yl)pyrrolidin-3-yl (1-methyl-2-oxopiperidin-4-yl)carbamate]
18 | 10 to 100 | 0.001 to 10 | O=C(O)Cn1ncc(N2CC[C@@H](OC(=O)NC3CCC(F)(F)CC3)C2)c(Cl)c1=O [P-0282, (R)-2-(5-chloro-4-(3-(((4,4-difluorocyclohexyl)carbamoyl)oxy)pyrrolidin-1-yl)-6-oxopyridazin-1(6H)-yl)acetic acid]
19 | 10 to 100 | 100 to 1000 | O=C(O)Cn1ncc(N2CC[C@@H](OC(=O)NC3CCC(F)(F)CC3)C2)cc1=O [P-0283, (R)-2-(4-(3-(((4,4-difluorocyclohexyl)carbamoyl)oxy)pyrrolidin-1-yl)-6-oxopyridazin-1(6H)-yl)acetic acid]
20 | 0.001 to 10 | 0.001 to 10 | O=C(NC1CCC(F)(F)CC1)O[C@@H]1CCN(c2cnn(CC(O)C(F)(F)F)c(=O)c2Cl)C1 (stereo partly drawn) [P-0284, (3R)-1-(5-chloro-6-oxo-1-(3,3,3-trifluoro-2-hydroxypropyl)-1,6-dihydropyridazin-4-yl)pyrrolidin-3-yl (4,4-difluorocyclohexyl)carbamate]
21 | 10 to 100 | 0.001 to 10 | NC(=O)Cn1ncc(N2CC[C@@H](OC(=O)NC3CCC(F)(F)CC3)C2)c(Cl)c1=O [P-0285, (R)-1-(1-(2-amino-2-oxoethyl)-5-chloro-6-oxo-1,6-dihydropyridazin-4-yl)pyrrolidin-3-yl (4,4-difluorocyclohexyl)carbamate]
22 | 10 to 100 | 0.001 to 10 | N#CCn1ncc(N2CC[C@@H](OC(=O)NC3CCC(F)(F)CC3)C2)c(Cl)c1=O [P-0286, (R)-1-(5-chloro-1-(cyanomethyl)-6-oxo-1,6-dihydropyridazin-4-yl)pyrrolidin-3-yl (4,4-difluorocyclohexyl)carbamate]
23 | 0.001 to 10 | 0.001 to 10 | O=C(NC1CCC(F)(F)CC1)O[C@@H]1CCN(c2cnn(CCO)c(=O)c2Cl)C1 [P-0287, (R)-1-(5-chloro-1-(2-hydroxyethyl)-6-oxo-1,6-dihydropyridazin-4-yl)pyrrolidin-3-yl (4,4-difluorocyclohexyl)carbamate]
24 | 0.001 to 10 | 0.001 to 10 | C[C@@H]1CCCC[C@@H]1NC(=O)O[C@@H]1CCN(c2cn[nH]c(=O)c2Cl)C1 [P-0288, (R)-1-(5-chloro-6-oxo-1,6-dihydropyridazin-4-yl)pyrrolidin-3-yl ((1S,2R)-2-methylcyclohexyl)carbamate]
25 | 0.001 to 10 | 0.001 to 10 | Cn1ncc(N2CC[C@@H](OC(=O)N[C@H]3CC[C@H](NS(=O)(=O)c4ccc(F)cc4F)CC3)C2)c(Cl)c1=O [P-0289, (R)-1-(5-chloro-1-methyl-6-oxo-1,6-dihydropyridazin-4-yl)pyrrolidin-3-yl ((1r,4R)-4-((2,4-difluorophenyl)sulfonamido)cyclohexyl)carbamate]
26 | 0.001 to 10 | 0.001 to 10 | O=C(N[C@H]1CC[C@@H](NC(=O)C2CCC2)CC1)O[C@@H]1CCN(c2cn[nH]c(=O)c2Cl)C1 [P-0290, (R)-1-(5-chloro-6-oxo-1,6-dihydropyridazin-4-yl)pyrrolidin-3-yl ((1s,4S)-4-(cyclobutanecarboxamido)cyclohexyl)carbamate]
